Measurements published in publication PMC5983823, “Screening of Natural Product Derivatives Identifies Two Structurally Related Flavonoids as Potent Quorum Sensing Inhibitors against Gram-Negative Bacteria” (International Journal of Molecular Sciences, 2018).

Assays:
[1] = test system: P. aeruginosa and E. coli biofilms; assay: Transmitted light microscopy of biofilms; assay type: cell-based, Pseudomonas aeruginosa, Escherichia coli; conditions: 100 µM, all the tested strains, crystal violet, 40×
Protocol: For imaging, bacteria were allowed to adhere and form microcolonies on coverslips. Briefly, 5 mL of diluted cultures (10^6 CFU/mL) of P. aeruginosa and E. coli was added to 6-well plates containing glass coverslips (22 mm × 22 mm). The plates were incubated at 37 °C without shaking for 2 h. Thereafter, bacterial suspensions were removed, and the wells were washed once with PBS. Fresh LB with and without the lead compounds at a final concentration of 100 µM was added to the wells, and the plates were incubated at 37 °C for 22 h. At the end of 24 h, coverslips were rinsed three times with MQ-water and air dried followed by staining with 0.23% (v/v) crystal violet solution. Coverslips were allowed to dry and visualized under a Transmitted Light Microscope (EVOS® XL Imaging System, InvitrogenTM, Thermo Fisher Scientific, San Jose, CA, USA) at a magnification of 40×.

E. coli K-12 [2] = assay: Viable plate counts (bacterial growth); assay type: cell-based, Escherichia coli; conditions: 100 and 400 µM, 24 h
Protocol: (§1) Effects of the leads on bacterial growth were assessed by performing viable plate counts. Compounds at final concentrations of 100 and 400 µM and cultures of P. aeruginosa (ATCC 9027, ATCC 15422 and PA01) and E. coli K-12 (10^6 CFU/mL) were simultaneously added to the 96-microtiter well plates (200 µL per well). Untreated bacteria were included in control wells. The plates were incubated at 37 °C, without shaking for 24 h. At the end of this period, bacterial suspensions were transferred from the wells to Eppendorf tubes, and the tubes were sonicated for 10 min (25 °C, 35 kHz, Sonorex Digitec water bath (Bandelin, Zurich, Switzerland)). Each suspension was serially diluted in LB and plated on LB agar. The number of viable bacteria in each test concentration was counted after overnight incubation at 37 °C. Results were expressed as CFU/mL.

[3] = test system: P. aeruginosa (ATCC 9027, ATCC 15422 and PA01); assay: Viable plate counts (bacterial growth); assay type: cell-based, Pseudomonas aeruginosa; conditions: 100 and 400 µM, 24 h
Protocol: as §1

P. aeruginosa ATCC 15422 = assay: Crystal violet staining assay, transition from microcolonies to fully formed biofilms; assay type: cell-based; conditions: Pseudomonas aeruginosa, ATCC15422, read-out: Inhibitory activity on the transition from microcolonies to fully formed biofilms
Protocol: (§2) Crystal violet-based biomass staining assay was performed to assess the effects of the compounds on the transition from microcolonies to fully formed as recently described in [26] with minor modifications. Briefly, diluted cultures of exponentially grown P. aeruginosa ATCC 9027, ATCC 15442 and PA01, and E. coli K-12 (10^6 CFU/mL) were added to the 96-microtiter well plates (200 µL per well) to form microcolonies for two hours (37 °C). At the end of this period, bacterial suspensions were removed, compounds at a final concentration of 400 µM and fresh LB media were added, and plates were incubated at 37 °C, with shaking (200 rpm) for additional 22 h. After the incubation period, media was discarded and the biofilms were washed once with sterile Milli-Q (MQ)-water. Biomass was fixed with methanol for 15 min followed by staining with 0.23% (v/v) crystal violet (Sigma-Aldrich, Munich, Germany) solution prepared in MQ-water (200 µL per well) for 5 min. Thereafter, wells were washed twice with MQ-water and 200 µL of 96% ethanol was added to the wells. Absorbance was measured at 595 nm using Varioskan Flash after 1 h.

E. coli K-12 [4] = assay: as above; assay type: cell-based; conditions: Escherichia coli, K12, E. coli K-12, mean ± SD, read-out: Inhibitory activity on the transition from microcolonies to fully formed biofilms
Protocol: as §2

[5] = test system: Staphylococcus aureus biofilms; set-up: method as in PMID 24071942; conditions: cited from earlier work
C. violaceum ATCC 31532 = assay: Violacein extraction assay (QS-mediated violacein production); assay type: cell-based, Chromobacterium violaceum; conditions: Chromobacterium violaceum; for inhibition at 400 µM: ATCC31532, 24 h, primary screening, 24 h, C. violaceum ATCC 31532, read-out: Inhibition-% of violacein production; for IC50: ATCC31532, C. violaceum ATCC 31532, 15 concentration points, read-out: IC50 of violacein production
Protocol: The initial screening of compound library was conducted using two strains of C. violaceum as model bacterium, and two assays (violacein extraction and resazurin staining) in parallel as recently optimized in [26]. For the screening assays, overnight cultures of C. violaceum were diluted in LB broth supplemented with yeast extract (LBY) (0.1% w/v, Sigma Aldrich, St. Louis, MO, USA). Culture of C. violaceum CV026 was further supplemented with 0.5 µM N-(β-ketocaproyl)-L-Homoserine lactone (3-O-C6-(L)-HSL, Cayman chemicals, Ann Arbor, MI, USA) to induce the violacein production. Bacteria (10^6 CFU/mL) was exposed to compounds (400 µM) in a total volume of 200 µL in 96-microtiter well plates (Nunc, Roskilde, Denmark), and incubated at 27 °C, with shaking at 200 rpm for 24 h. DMSO was added in untreated control wells and bacteria-free wells with only LBY were included controls. Additionally, autoinducer-free wells containing only bacteria were included in C. violaceum CV026 plates. Plates were prepared in duplicates. Quercetin dihydrate (Carl Roth GmbH, Karlsruhe, Germany) at 400 µM was used as positive control in violacein extraction assay, and azithromycin (Cayman chemicals, Ann Arbor, MI, USA) at 10 µM in viability assay. Both control compounds were prepared in DMSO. DMSO concentration was 2.5% throughout the experiments.
After incubation period of 24 h, plates were centrifuged (Allegra™ X-12R Benchtop centrifuge, Beckman Coulter Inc., Fullerton, CA, USA) at 3000 rpm for 10 min to precipitate the violacein. Supernatants were discarded from the wells by pipetting, and pellets were re-suspended in 200 μL of 96% ethanol by scraping and mixing followed by centrifugation (3000 rpm, 10 min). Thereafter, 100 μL of supernatants were transferred to sterile 96-microtiter well plates, and violacein was quantified by reading the optical density at 595 nm using Varioskan Flash. Inhibition of violacein production was expressed as inhibition percentages of the untreated biofilms (Equation (1)):Inhibition-% = [(untreated control OD595 − sample OD595)/(untreated control OD595 − media control OD595)] × 100%(1) in which untreated control = C. violaceum + DMSO, media control = LBY, and sample = C. violaceum treated with a compound. Later on, violacein extraction assay was also utilized for the determination of half inhibitory concentrations of the compounds.

Row | SMILES | Effect on biofilm structure and formation [1] | Bactericidal activity by viable plate counts (E. coli K-12 [2]) | Bactericidal activity by viable plate counts [3] | inhibition at 400 µM (P. aeruginosa ATCC 15422) | inhibition at 400 µM (E. coli K-12 [4]) | Anti-biofilm activity against S. aureus [5] | inhibition at 400 µM (C. violaceum ATCC 31532) | IC50 (C. violaceum ATCC 31532)
1 | CCC(=O)Oc1c(-c2ccccc2Cl)oc2ccccc2c1=O [Compound 2117, 2-(2-chlorophenyl)-4-oxochromen-3-yl propanoate] | alteration of biofilm structure and reduced biofilm formation | Neither of the leads displayed any bactericidal activity | Neither of the leads displayed any bactericidal activity | 11.2 ± 1.8% | 51.3 ± 6.9% | inactives | 102% | 9.6 µM
2 | CCCCCCCCCC(=O)Oc1c(-c2ccc(OC)cc2)oc2ccccc2c1=O [Compound 2896, 2-(4-methoxyphenyl)-4-oxochromen-3-yl decanoate] | alteration of biofilm structure and reduced biofilm formation | Neither of the leads displayed any bactericidal activity | Neither of the leads displayed any bactericidal activity | 28.1 ± 15.1% | 14.3 ± 10.1% | inactives | 94.5% | 13.9 µM
